Measurements published in the supplement of paper PMC8149375.

Assays:
Conditions in all cases: treatment: drug + dasatinib (fixed dose, not stated); 5 days
ACHN [1] = test: AUC of dose-response viability curve, drug + dasatinib, normalised to DMSO (arbitrary (AUC of normalised viability)); higher = less growth inhibition
Protocol: (§1)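 Primary HTS combination arm: 8 RCC cell lines treated with 8 doses (up to 10 uM) of each library drug plus a fixed dose of dasatinib (dose not stated) for 5 days; viability read by CellTiter-Glo and normalised to DMSO. GI50 was fitted with XLfit, AUC is the area under the dose-response curve, and minimum viability is the lowest fraction of DMSO viability across doses.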

786-O [2] = test: as above
Protocol: as §1

CAKI-1 [3] = test: as above
Protocol: as §1

769-P [4] = test: as above
Protocol: as §1

SN12C [5] = test: as above
Protocol: as §1

TK-10 [6] = test: as above
Protocol: as §1

A498 [7] = test: as above
Protocol: as §1

UO-31 [8] = test: as above
Protocol: as §1

ACHN [9] = test: GI50 of drug in presence of dasatinib; higher = less potent
Protocol: as §1

786-O [10] = test: as above
Protocol: as §1

CAKI-1 [11] = test: as above
Protocol: as §1

769-P [12] = test: as above
Protocol: as §1

SN12C [13] = test: as above
Protocol: as §1

TK-10 [14] = test: as above
Protocol: as §1

A498 [15] = test: as above
Protocol: as §1

UO-31 [16] = test: as above
Protocol: as §1

ACHN [17] = test: minimum viability across doses, drug + dasatinib, relative to DMSO (fraction); higher = less growth inhibition
Protocol: as §1

786-O [18] = test: as above
Protocol: as §1

CAKI-1 [19] = test: as above
Protocol: as §1

769-P [20] = test: as above
Protocol: as §1

SN12C [21] = test: as above
Protocol: as §1

TK-10 [22] = test: as above
Protocol: as §1

A498 [23] = test: as above
Protocol: as §1

UO-31 [24] = test: as above
Protocol: as §1

Row | GI50 of drug (ACHN [9]) [µM] | GI50 of drug (786-O [10]) [µM] | Compound | AUC of dose-response viability curve (ACHN [1]) | AUC of dose-response viability curve (786-O [2]) | AUC of dose-response viability curve (CAKI-1 [3]) | AUC of dose-response viability curve (769-P [4]) | AUC of dose-response viability curve (SN12C [5]) | AUC of dose-response viability curve (TK-10 [6]) | AUC of dose-response viability curve (A498 [7]) | AUC of dose-response viability curve (UO-31 [8]) | GI50 of drug (CAKI-1 [11]) [µM] | GI50 of drug (769-P [12]) [µM] | GI50 of drug (SN12C [13]) [µM] | GI50 of drug (TK-10 [14]) [µM] | GI50 of drug (A498 [15]) [µM] | GI50 of drug (UO-31 [16]) [µM] | minimum viability across doses (ACHN [17]) | minimum viability across doses (786-O [18]) | minimum viability across doses (CAKI-1 [19]) | minimum viability across doses (769-P [20]) | minimum viability across doses (SN12C [21]) | minimum viability across doses (TK-10 [22]) | minimum viability across doses (A498 [23]) | minimum viability across doses (UO-31 [24])
1 | 3.24 | < 0.003 | O=C(O)c1ccc2c(c1)nc(Nc1cccc(Cl)c1)c1ccncc12 [cx-4945 (Silmitasertib)] + Cc1nc(Nc2ncc(C(=O)Nc3c(C)cccc3Cl)s2)cc(N2CCN(CCO)CC2)n1 [dasatinib] | 2.01 | 1.99 | 2.12 | 2.44 | 2.52 | 2.54 | 2.87 | 4.08 | 1.27 | > 10 | > 10 | > 10 | > 10 | > 10 | 0.169 | 0.313 | 0.033 | 0.595 | 0.642 | 0.645 | 0.47 | 0.865
2 | 0.0189 | 0.0858 | CC(C)CC(=O)Nc1n[nH]c2c1CN(C(=O)C1CCN(C)CC1)C2(C)C + Cc1nc(Nc2ncc(C(=O)Nc3c(C)cccc3Cl)s2)cc(N2CCN(CCO)CC2)n1 [dasatinib] | 1.11 | 1.21 | 1.99 | 2.32 | 1.7 | 2.43 | 2.59 | 3.13 | 0.842 | 3.22 | 0.248 | 2.84 | 1.29 | 1.96 | 0.0258 | 0.0032 | 0.0614 | 0.288 | 0.00656 | 0.184 | 0.00865 | 0.0113
3 | 0.134 | 0.0308 | CC(C)(C)c1nc(-c2cccc(NS(=O)(=O)c3c(F)cccc3F)c2F)c(-c2ccnc(N)n2)s1 + Cc1nc(Nc2ncc(C(=O)Nc3c(C)cccc3Cl)s2)cc(N2CCN(CCO)CC2)n1 [dasatinib] | 1.51 | 1.49 | 1.48 | 2.36 | 2.61 | 2 | 4.08 | 3.99 | 0.121 | > 10 | > 10 | 0.563 | > 10 | > 10 | 0.113 | 0.184 | 0.0739 | 0.55 | 0.684 | 0.3 | 1.01 | 0.58
4 | 0.00424 | 1.21 | COc1cc2c(Nc3ccc(NC(=O)c4ccccc4)cc3)ncnc2cc1OCCCN1CCOCC1 + Cc1nc(Nc2ncc(C(=O)Nc3c(C)cccc3Cl)s2)cc(N2CCN(CCO)CC2)n1 [dasatinib] | 1.54 | 2.13 | 1.76 | 2.17 | 2.43 | 2.35 | 3.33 | 3.27 | 0.385 | 2.91 | > 10 | 4.12 | 9.27 | 5.77 | 0.095 | 0.0181 | 0.0572 | 0.24 | 0.383 | 0.191 | 0.283 | 0.0966
5 | 0.0245 | 0.713 | CC(C)n1nc(-c2cc3cc(O)ccc3[nH]2)c2c(N)ncnc21 [PP242] + Cc1nc(Nc2ncc(C(=O)Nc3c(C)cccc3Cl)s2)cc(N2CCN(CCO)CC2)n1 [dasatinib] | 1.19 | 1.74 | 1.51 | 1.86 | 1.74 | 1.86 | 2.41 | 2.82 | 0.158 | 0.401 | 0.357 | 0.253 | 1.35 | 1.14 | 0.0314 | 0.00231 | 0.0342 | 0.0492 | 0.0689 | 0.0716 | 0.152 | 0.00386
6 | 3.78 | > 10 | Br.Cc1ccc(C(=O)Cn2c3c(sc2=N)CCCC3)cc1 [Pifithrin-α] + Cc1nc(Nc2ncc(C(=O)Nc3c(C)cccc3Cl)s2)cc(N2CCN(CCO)CC2)n1 [dasatinib] | 2.03 | 2.26 | 2.13 | 2.63 | 2.53 | 2.3 | 3.57 | 4.02 | > 10 | > 10 | > 10 | > 10 | > 10 | > 10 | 0.391 | 0.535 | 0.529 | 0.696 | 0.656 | 0.59 | 0.901 | 0.998
7 | 0.0828 | 0.098 | CCn1nnc2c(N3CCOCC3)nc(-c3ccc(NC(=O)Nc4ccc(C(=O)N5CCN(C)CC5)cc4)cc3)nc21 [PKI-402] + Cc1nc(Nc2ncc(C(=O)Nc3c(C)cccc3Cl)s2)cc(N2CCN(CCO)CC2)n1 [dasatinib] | 1.25 | 1.41 | 1.48 | 1.86 | 1.19 | 1.55 | 1.66 | 2.39 | 0.122 | 0.45 | 0.0416 | 0.117 | 0.0875 | 0.35 | 0.0465 | 0.00332 | 0.0314 | 0.0547 | 0.0929 | 0.0238 | 0.148 | 0.00734
8 | 0.0231 | < 0.003 | C#Cc1cccc(Nc2ncnc3cc(OCCOC)c(OCCO)cc23)c1.Cl [OSI-420 (Desmethyl Erlotinib)] + Cc1nc(Nc2ncc(C(=O)Nc3c(C)cccc3Cl)s2)cc(N2CCN(CCO)CC2)n1 [dasatinib] | 1.35 | 2.22 | 1.93 | 1.96 | 2.36 | 2.18 | 3.08 | 3.77 | 1.07 | 0.51 | > 10 | 2.32 | > 10 | 8.63 | 0.0775 | 0.403 | 0.11 | 0.226 | 0.442 | 0.379 | 0.761 | 0.325

Further lines, the compound ahead of its results:

Row | Compound | GI50 of drug (ACHN [9]) [µM] | GI50 of drug (786-O [10]) [µM] | AUC of dose-response viability curve (ACHN [1]) | AUC of dose-response viability curve (786-O [2]) | AUC of dose-response viability curve (CAKI-1 [3]) | AUC of dose-response viability curve (769-P [4]) | AUC of dose-response viability curve (SN12C [5]) | AUC of dose-response viability curve (TK-10 [6]) | AUC of dose-response viability curve (A498 [7]) | AUC of dose-response viability curve (UO-31 [8]) | GI50 of drug (CAKI-1 [11]) [µM] | GI50 of drug (769-P [12]) [µM] | GI50 of drug (SN12C [13]) [µM] | GI50 of drug (TK-10 [14]) [µM] | GI50 of drug (A498 [15]) [µM] | GI50 of drug (UO-31 [16]) [µM] | minimum viability across doses (ACHN [17]) | minimum viability across doses (786-O [18]) | minimum viability across doses (CAKI-1 [19]) | minimum viability across doses (769-P [20]) | minimum viability across doses (SN12C [21]) | minimum viability across doses (TK-10 [22]) | minimum viability across doses (A498 [23]) | minimum viability across doses (UO-31 [24])
9 | COC[C@H]1OC(=O)c2coc3c2[C@@]1(C)C1=C(C3=O)[C@@H]2CCC(=O)[C@@]2(C)C[C@@H]1OC(C)=O [Wortmannin] + Cc1nc(Nc2ncc(C(=O)Nc3c(C)cccc3Cl)s2)cc(N2CCN(CCO)CC2)n1 [dasatinib] | 0.0414 | 0.0325 | 1.87 | 1.62 | 1.38 | 2.25 | 2.16 | 2.46 | 2.76 | 2.3 | 0.0158 | > 10 | 0.0534 | > 10 | 0.0848 | > 10 | 0.425 | 0.00996 | 0.123 | 0.487 | 0.342 | 0.633 | 0.153 | 0.688
10 | O=C(c1ccc(/C=C/c2n[nH]c3ccccc23)cc1)N1CCNCC1 [KW 2449] + Cc1nc(Nc2ncc(C(=O)Nc3c(C)cccc3Cl)s2)cc(N2CCN(CCO)CC2)n1 [dasatinib] | 0.0785 | 8.58 | 1.64 | 2.58 | 2.03 | 2.33 | 2.05 | 2.89 | 3.27 | 3.7 | 2.54 | 2.78 | 1.24 | > 10 | > 10 | 3.52 | 0.159 | 0.425 | 0.15 | 0.162 | 0.0456 | 0.611 | 0.521 | 0.0258
11 | CNC(=O)c1ccccc1Nc1nc(Nc2ccc(N3CCOCC3)cc2OC)ncc1Cl [NVP-TAE226] + Cc1nc(Nc2ncc(C(=O)Nc3c(C)cccc3Cl)s2)cc(N2CCN(CCO)CC2)n1 [dasatinib] | 0.0274 | 0.0267 | 1.19 | 1.1 | 1.34 | 1.98 | 1.91 | 1.64 | 3.26 | 2.35 | 0.107 | 0.75 | 0.335 | 0.202 | 5.88 | 0.334 | 0.0673 | 0.00641 | 0.0135 | 0.085 | 0.132 | 0.0355 | 0.201 | 0.00626
12 | CS(=O)(=O)CCNCc1ccc(-c2ccc3ncnc(Nc4ccc(OCc5cccc(F)c5)c(Cl)c4)c3c2)o1.Cc1ccc(S(=O)(=O)O)cc1.Cc1ccc(S(=O)(=O)O)cc1 [Lapatinib Ditosylate (Tykerb)] + Cc1nc(Nc2ncc(C(=O)Nc3c(C)cccc3Cl)s2)cc(N2CCN(CCO)CC2)n1 [dasatinib] | 0.176 | 6.69 | 1.7 | 2.41 | 2.03 | 1.77 | 2.34 | 2.34 | 3.08 | 3.08 | 3.85 | 0.401 | > 10 | 3.34 | > 10 | 5.85 | 0.352 | 0.426 | 0.211 | 0.18 | 0.606 | 0.3 | 0.798 | 0.35
13 | Cc1ccc(NC(=O)c2cccc(C(C)(C)C#N)c2)cc1Nc1ccc2ncn(C)c(=O)c2c1 [AZ628] + Cc1nc(Nc2ncc(C(=O)Nc3c(C)cccc3Cl)s2)cc(N2CCN(CCO)CC2)n1 [dasatinib] | 0.146 | > 10 | 1.59 | 2.36 | 2.08 | 2.33 | 2.33 | 2.25 | 3.02 | 2.95 | 1.12 | 2.47 | > 10 | 1.6 | 6.1 | 1.58 | 0.174 | 0.593 | 0.0806 | 0.214 | 0.348 | 0.311 | 0.409 | 0.0219
14 | Cn1c(=O)n(-c2ccc(C(C)(C)C#N)cc2)c2c3cc(-c4cnc5ccccc5c4)ccc3ncc21 [BEZ235 (NVP-BEZ235)] + Cc1nc(Nc2ncc(C(=O)Nc3c(C)cccc3Cl)s2)cc(N2CCN(CCO)CC2)n1 [dasatinib] | 0.0347 | 0.0813 | 1.23 | 1.44 | 1.35 | 1.35 | 1.63 | 1.84 | 1.65 | 1.66 | 0.0737 | 0.0596 | 0.164 | 0.306 | 0.152 | 0.129 | 0.0631 | 0.0643 | 0.0361 | 0.0926 | 0.146 | 0.122 | 0.0638 | 0.00603
